Measured values published in patent US8586768B2, “Design, synthesis and functional characterization of rottlerin analogs” (priority 2009, dated 2013).

Assays:
P38α = biological target: T1, P38α (Homo sapiens, UniProt Q16539); assay: In-vitro kinase profiling, radioisotope screening assay (Signal Chem); type: biochemical; conditions: 5 μM compound, 50 μM ATP, vs vehicle control; negative = inhibition
T1 construct: purchased Signal Chem (Richmond, BC, Canada)
Procedure: (§1) Kinase profiling of PK analogs. The inhibitory effect of lead PK analogs were tested against a panel of 15 protein kinase targets (TABLE 1) to develop better lead candidates without “off” target effects. The selectivity assay was performed at Signal Chem™ (Richmond, BC, Canada) by profiling against protein kinase targets using the “Gold Standard” radioisotope screening assay format. This assay format gave the highest signal noise ratio and allowed the direct measurement of catalytic activity of a protein kinase.
(§2) All assays were performed in triplicate in a 96-well assay format and the % error between triplicates is <10%. Protein kinase assays was performed in the presence of 50 μM ATP at 30° C. for 15 min. The activity of the enzymes in the presence of 5 μM PK analogs was compared to that in the vehicle control and expressed as a percent change in activity relative to that observed in the vehicle control. In TABLE 1, the results are expressed as percent activity change compared to control. The intra-assay variability was determined to be less than 10%. Inhibition of target activity by the compound is shown by a negative value, while activation of target activity is shown by positive value, with values >10% considered to be highly significant.

PKCμ = biological target: T2, PKCμ (Homo sapiens, UniProt Q15139); assay: as above; type: biochemical; conditions: 5 μM compound, 50 μM ATP, vs vehicle control; negative = inhibition
T2 construct: purchased Signal Chem (Richmond, BC, Canada)
T2 sequence (Q15139 1-912): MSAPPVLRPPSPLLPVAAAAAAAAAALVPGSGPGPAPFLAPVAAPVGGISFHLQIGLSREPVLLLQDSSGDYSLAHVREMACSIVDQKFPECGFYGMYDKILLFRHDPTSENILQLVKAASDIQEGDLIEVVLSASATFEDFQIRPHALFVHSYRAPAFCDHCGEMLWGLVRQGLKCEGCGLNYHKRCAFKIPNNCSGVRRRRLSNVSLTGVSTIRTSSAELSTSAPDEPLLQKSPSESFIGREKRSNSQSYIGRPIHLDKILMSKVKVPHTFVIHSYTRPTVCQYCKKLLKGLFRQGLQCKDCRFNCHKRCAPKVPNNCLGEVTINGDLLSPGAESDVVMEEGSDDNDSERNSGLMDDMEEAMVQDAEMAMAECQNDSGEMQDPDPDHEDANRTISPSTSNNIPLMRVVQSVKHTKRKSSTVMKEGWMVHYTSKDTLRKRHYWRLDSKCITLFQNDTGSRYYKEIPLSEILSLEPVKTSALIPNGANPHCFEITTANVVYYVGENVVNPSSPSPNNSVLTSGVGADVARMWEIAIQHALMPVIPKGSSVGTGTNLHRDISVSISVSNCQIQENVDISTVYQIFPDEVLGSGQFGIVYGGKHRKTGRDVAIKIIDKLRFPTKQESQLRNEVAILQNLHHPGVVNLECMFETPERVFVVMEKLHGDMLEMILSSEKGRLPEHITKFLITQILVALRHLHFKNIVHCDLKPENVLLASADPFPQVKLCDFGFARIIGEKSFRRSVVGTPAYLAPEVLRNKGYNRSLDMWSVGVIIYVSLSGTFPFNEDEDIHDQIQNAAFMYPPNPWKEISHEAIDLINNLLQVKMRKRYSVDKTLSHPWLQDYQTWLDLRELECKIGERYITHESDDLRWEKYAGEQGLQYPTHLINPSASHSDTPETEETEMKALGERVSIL
Procedure: as §1, §2

P13K (p110b/p85a) = biological target: T3, P13K (p110b/p85a) (Homo sapiens, UniProt P42338); assay: as above; type: biochemical; conditions: 5 μM compound, 50 μM ATP, vs vehicle control; negative = inhibition
T3 construct: purchased Signal Chem (Richmond, BC, Canada)
Procedure: as §1, §2

PKCγ = biological target: T4, PKCγ (Homo sapiens, UniProt P05129); assay: as above; type: biochemical; conditions: 5 μM compound, 50 μM ATP, vs vehicle control; negative = inhibition
T4 construct: purchased Signal Chem (Richmond, BC, Canada)
Procedure: as §1, §2

PKCε = biological target: T5, PKCε (Homo sapiens, UniProt Q02156); assay: as above; type: biochemical; conditions: for % activity change: 5 μM compound, 50 μM ATP, vs vehicle control, negative = inhibition
T5 construct: purchased Signal Chem (Richmond, BC, Canada)
T5 sequence (Q02156 1-737): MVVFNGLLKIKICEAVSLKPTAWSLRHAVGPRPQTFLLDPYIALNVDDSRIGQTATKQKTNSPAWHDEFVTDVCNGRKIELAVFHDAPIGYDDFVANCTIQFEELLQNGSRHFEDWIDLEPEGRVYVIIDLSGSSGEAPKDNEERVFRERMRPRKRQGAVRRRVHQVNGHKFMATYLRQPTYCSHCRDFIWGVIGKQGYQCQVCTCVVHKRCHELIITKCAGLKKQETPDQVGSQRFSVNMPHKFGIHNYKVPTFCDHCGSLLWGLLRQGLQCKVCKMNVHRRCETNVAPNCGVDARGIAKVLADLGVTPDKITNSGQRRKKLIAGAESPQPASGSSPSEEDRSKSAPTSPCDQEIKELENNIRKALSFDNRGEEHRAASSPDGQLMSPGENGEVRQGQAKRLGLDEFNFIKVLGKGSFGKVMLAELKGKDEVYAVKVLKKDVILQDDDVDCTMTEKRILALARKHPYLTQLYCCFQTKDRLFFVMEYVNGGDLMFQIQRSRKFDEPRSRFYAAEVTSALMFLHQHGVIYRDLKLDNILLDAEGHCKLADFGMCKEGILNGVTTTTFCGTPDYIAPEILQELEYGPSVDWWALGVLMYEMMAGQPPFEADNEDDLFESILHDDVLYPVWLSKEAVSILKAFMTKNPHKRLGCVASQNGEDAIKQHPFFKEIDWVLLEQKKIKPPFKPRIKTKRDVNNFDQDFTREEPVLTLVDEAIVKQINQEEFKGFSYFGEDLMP
Procedure: as §1, §2

ERKI = biological target: T6, ERKI (Homo sapiens, UniProt P27361); assay: as above; type: biochemical; conditions: 5 μM compound, 50 μM ATP, vs vehicle control; negative = inhibition
T6 construct: purchased Signal Chem (Richmond, BC, Canada)
Procedure: as §1, §2

PKAα = biological target: T7, PKAα (Homo sapiens, UniProt P17612); assay: as above; type: biochemical; conditions: 5 μM compound, 50 μM ATP, vs vehicle control; negative = inhibition
T7 construct: purchased Signal Chem (Richmond, BC, Canada)
Procedure: as §1, §2

PKCβ = biological target: T8, PKCβ (Homo sapiens, UniProt P05771); assay: as above; type: biochemical; conditions: 5 μM compound, 50 μM ATP, vs vehicle control; negative = inhibition
T8 construct: purchased Signal Chem (Richmond, BC, Canada)
Procedure: as §1, §2

JNK3 = biological target: T9, JNK3 (Homo sapiens, UniProt P53779); assay: as above; type: biochemical; conditions: for % activity change: 5 μM compound, 50 μM ATP, vs vehicle control, negative = inhibition; for inhibited by % compared to control: 5 μM concentration, given as positive inhibition
T9 construct: purchased Signal Chem (Richmond, BC, Canada)
Procedure: as §1, §2

[1] = LC-MS-MS detection in mouse brain after oral administration; type: in vivo
Source text: Bioavailability of Lead PK analogs. LC-MS-MS detection of lead PK analogs PK202 and PK8302 analog in mouse brain was completed.

[2] = mouse brain, oral administration (oral gavage)

T3 sequence (P42338 whole entry, stated change not applied): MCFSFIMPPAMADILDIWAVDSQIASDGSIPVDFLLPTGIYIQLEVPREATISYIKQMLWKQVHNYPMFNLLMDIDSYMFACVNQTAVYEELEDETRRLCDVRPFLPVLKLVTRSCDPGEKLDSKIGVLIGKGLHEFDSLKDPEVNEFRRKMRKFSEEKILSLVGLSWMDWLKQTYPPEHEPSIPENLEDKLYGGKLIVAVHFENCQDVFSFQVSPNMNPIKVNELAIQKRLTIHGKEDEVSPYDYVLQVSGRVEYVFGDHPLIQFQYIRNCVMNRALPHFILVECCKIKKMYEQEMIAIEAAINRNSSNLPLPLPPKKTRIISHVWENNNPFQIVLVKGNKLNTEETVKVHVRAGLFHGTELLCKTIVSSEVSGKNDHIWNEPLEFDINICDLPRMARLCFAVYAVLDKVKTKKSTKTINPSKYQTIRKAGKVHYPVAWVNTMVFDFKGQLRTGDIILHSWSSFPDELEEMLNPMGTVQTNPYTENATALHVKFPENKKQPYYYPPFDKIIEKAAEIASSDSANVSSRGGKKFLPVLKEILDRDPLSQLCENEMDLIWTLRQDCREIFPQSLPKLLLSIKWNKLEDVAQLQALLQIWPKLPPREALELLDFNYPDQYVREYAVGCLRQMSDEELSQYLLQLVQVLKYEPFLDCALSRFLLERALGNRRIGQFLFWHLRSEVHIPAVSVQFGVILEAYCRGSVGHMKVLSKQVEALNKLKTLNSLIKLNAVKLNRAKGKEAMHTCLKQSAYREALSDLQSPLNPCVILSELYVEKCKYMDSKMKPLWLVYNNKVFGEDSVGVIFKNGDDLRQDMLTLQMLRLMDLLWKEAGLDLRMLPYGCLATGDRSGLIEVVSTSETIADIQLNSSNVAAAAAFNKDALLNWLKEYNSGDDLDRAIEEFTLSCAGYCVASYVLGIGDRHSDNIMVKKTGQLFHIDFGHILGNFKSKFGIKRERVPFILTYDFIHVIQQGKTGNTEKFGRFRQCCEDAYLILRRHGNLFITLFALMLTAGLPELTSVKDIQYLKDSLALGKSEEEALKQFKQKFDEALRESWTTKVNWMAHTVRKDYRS
T3 sequence (P27986 2-724 partner): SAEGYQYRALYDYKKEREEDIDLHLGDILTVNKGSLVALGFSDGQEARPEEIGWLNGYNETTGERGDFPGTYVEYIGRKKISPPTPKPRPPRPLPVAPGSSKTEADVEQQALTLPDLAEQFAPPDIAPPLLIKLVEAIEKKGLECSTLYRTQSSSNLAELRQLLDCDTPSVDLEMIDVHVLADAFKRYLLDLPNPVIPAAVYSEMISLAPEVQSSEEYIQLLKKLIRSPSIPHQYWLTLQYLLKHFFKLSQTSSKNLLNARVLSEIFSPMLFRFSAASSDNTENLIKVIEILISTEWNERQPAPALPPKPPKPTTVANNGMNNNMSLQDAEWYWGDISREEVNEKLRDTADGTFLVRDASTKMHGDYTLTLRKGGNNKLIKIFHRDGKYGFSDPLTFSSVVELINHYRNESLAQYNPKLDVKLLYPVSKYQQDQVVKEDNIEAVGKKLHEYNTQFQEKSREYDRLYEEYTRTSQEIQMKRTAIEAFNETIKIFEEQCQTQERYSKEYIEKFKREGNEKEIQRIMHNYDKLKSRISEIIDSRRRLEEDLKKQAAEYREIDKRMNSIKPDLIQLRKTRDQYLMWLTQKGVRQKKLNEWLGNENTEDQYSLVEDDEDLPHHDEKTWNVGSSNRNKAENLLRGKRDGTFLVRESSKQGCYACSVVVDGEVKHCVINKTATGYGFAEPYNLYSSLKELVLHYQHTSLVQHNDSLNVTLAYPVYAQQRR
T6 sequence (P27361 whole entry): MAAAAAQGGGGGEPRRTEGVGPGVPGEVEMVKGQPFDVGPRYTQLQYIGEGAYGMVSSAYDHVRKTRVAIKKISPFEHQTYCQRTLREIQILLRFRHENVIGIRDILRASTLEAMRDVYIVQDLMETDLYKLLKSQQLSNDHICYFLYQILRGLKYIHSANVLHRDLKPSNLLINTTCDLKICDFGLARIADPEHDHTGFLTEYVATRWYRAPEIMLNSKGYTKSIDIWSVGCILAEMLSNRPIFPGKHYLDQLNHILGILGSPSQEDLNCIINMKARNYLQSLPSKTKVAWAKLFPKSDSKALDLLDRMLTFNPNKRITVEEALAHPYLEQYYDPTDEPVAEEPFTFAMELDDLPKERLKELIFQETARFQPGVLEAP
T1 sequence (Q16539 whole entry): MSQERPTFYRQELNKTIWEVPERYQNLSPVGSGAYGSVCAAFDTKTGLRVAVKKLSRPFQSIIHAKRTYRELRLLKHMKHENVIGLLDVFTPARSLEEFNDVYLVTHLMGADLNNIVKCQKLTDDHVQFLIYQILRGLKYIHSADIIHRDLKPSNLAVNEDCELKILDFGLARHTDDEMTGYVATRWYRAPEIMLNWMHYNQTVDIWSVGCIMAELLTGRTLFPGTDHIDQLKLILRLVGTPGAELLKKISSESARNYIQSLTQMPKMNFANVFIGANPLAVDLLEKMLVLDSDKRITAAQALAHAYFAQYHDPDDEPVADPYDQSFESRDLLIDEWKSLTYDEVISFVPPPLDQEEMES
T8 sequence (P05771 whole entry): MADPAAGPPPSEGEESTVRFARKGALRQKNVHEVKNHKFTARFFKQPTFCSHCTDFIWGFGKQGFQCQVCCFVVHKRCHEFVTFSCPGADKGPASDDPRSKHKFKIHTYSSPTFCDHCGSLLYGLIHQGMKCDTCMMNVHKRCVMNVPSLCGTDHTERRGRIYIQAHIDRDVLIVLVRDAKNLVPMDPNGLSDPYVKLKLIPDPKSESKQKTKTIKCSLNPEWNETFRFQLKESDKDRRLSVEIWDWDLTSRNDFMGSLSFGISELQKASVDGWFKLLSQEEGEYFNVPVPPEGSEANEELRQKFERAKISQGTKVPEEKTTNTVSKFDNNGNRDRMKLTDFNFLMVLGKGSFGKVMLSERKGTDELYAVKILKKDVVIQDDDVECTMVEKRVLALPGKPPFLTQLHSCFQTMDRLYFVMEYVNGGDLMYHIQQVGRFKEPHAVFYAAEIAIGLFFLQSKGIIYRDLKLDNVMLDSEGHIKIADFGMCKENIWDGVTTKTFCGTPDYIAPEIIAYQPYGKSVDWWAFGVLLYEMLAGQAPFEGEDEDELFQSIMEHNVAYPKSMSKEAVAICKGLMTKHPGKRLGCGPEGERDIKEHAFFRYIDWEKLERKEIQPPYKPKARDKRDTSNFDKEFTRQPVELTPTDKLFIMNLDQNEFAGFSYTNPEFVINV
T9 sequence (P53779 whole entry): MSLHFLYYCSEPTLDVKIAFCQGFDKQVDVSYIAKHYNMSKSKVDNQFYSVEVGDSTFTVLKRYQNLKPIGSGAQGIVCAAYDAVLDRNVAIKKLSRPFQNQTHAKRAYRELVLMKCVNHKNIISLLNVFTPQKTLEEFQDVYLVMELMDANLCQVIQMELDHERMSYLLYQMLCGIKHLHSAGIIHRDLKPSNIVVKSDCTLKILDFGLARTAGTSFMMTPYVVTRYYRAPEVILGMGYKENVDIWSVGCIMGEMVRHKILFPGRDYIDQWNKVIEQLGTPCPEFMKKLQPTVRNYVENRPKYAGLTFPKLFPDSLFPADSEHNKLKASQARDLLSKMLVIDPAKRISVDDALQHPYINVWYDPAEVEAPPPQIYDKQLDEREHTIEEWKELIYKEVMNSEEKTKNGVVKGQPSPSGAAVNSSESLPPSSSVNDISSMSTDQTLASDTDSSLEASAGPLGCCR

Row | Structure (SMILES) | % activity change (P38α) | % activity change (PKCμ) | % activity change (P13K (p110b/p85a)) | % activity change (PKCγ) | % activity change (PKCε) | % activity change (ERKI) | % activity change (PKAα) | % activity change (PKCβ) | % activity change (JNK3) | inhibited by % compared to control (JNK3) | level detected in substantia nigra by LC-MS-MS [1, 2] | level detected in substantia nigra by LC-MS-MS ([1]; mouse, in vivo, po) | inhibition at 5 µM (PKCε; 5 μM concentration, given as positive inhibition, read-out: inhibited by % compared to control)
1 | Oc1cc(O)c(Cc2c(O)cc(O)cc2O)c(O)c1 [PK103] | −5% | 6% | −6% | 9% | 5% | 0% | 3% | 3% | −12% | 12% |  |  | 
2 | CC(=O)c1c(O)c(C)c(O)c(Cc2c(O)c3c(c4c2OC(c2ccccc2)CC4=O)OC(C)(C)C=C3)c1O (stereo not drawn) [PK202] | −1% | 6% | −2% | 1% | −3% | 4% | 10% | 1% | −12% | 12% | Significant amounts |  | 
3 | CC1(C)C=Cc2c(O)cc(O)c(C(=O)/C=C/c3ccccc3)c2O1 [PK302] | −4% | 2% | −8% | 32% | 6% | 3% | 1% | 6% | −10% |  |  | Significant amounts | 
4 | CC(=O)c1c(O)c(C)c(O)c(Cc2c(O)c3c(c(C(=O)/C=C/c4ccccc4)c2O)OC(C)(C)C=C3)c1O [Rottlerin, (E)-1-[6-[(3-acetyl-2,4,6-trihydroxy-5-methylphenyl)methyl]-5,7-dihydroxy-2,2-dimethylchromen-8-yl]-3-phenylprop-2-en-1-one] | −1% | −5% | −10% | 6% | −25% | 3% | 1% | 0% | 7% |  | Significant levels |  | 25%
